Converted amounts (≈) assume the structure as drawn. The source made the active and inactive calls. The rule behind the calls is not given here.
Assays:
[1] = Cytotoxicity against human HEp-2 cells assessed as cell viability at 4 times of MIC incubated for 48 hrs by CCK8 assay (reference value: 100 %); type: toxicity, cell-based; settings: read-out: Activity
[2] = Hemolytic activity in Kunming mouse erythrocytes assessed as hemolysis at 1 time of MIC measured after 1 hrs by absorbance based assay relative to control; type: toxicity, cell-based, Erythrocyte; settings: read-out: Activity
Enterococcus faecium [3] = assay: Antimicrobial activity against Enterococcus faecium MC38 harboring erythromycin resistance rRNA methylase B and oxazolidinone-phenicol transferable resistance gene assessed as inhibition of visible growth of bacteria incubated for 20 hrs by broth microdilution method; type: functional
Klebsiella pneumoniae = assay: Antimicrobial activity against Klebsiella pneumoniae 9-1 assessed as inhibition of visible growth of bacteria incubated for 20 hrs by broth microdilution method; type: functional
Staphylococcus aureus [4] = assay: Antimicrobial activity against Staphylococcus aureus YZSA-24 harboring erythromycin resistance rRNA methylase C and methicillin resistance gene resistance locus assessed as inhibition of visible growth of bacteria incubated for 20 hrs by broth microdilution method; type: functional
[5] = Cytotoxicity against human HEp-2 cells assessed as cell viability at 8 times of MIC incubated for 48 hrs by CCK8 assay (reference value: 100 %); type: toxicity, cell-based; settings: read-out: Activity
Staphylococcus aureus [6] = assay: Antimicrobial activity against Staphylococcus aureus ATCC 29213 assessed as inhibition of visible growth of bacteria incubated for 20 hrs by broth microdilution method; type: functional
Streptococcus suis [7] = assay: microbe, parasite or virus in culture; type: functional; settings: SH0918, time 20 hrs
Description: Antimicrobial activity against Streptococcus suis SH0918 harboring erythromycin-resistance rRNA methylase B, tetracycline efflux protein O and oxazolidinone phenicol transferable resistance gene assessed as inhibition of visible growth of bacteria incubated for 20 hrs by broth microdilution method

Salmonella enteritidis = assay: Antimicrobial activity against Salmonella enteritis S1 assessed as inhibition of visible growth of bacteria incubated for 20 hrs by broth microdilution method; type: functional, Salmonella enterica subsp. enterica serovar Enteritidis; settings: Salmonella enterica
Staphylococcus aureus [8] = assay: Antimicrobial activity against Staphylococcus aureus YZSA-21 harboring erythromycin resistance rRNA methylase C assessed as inhibition of visible growth of bacteria incubated for 20 hrs by broth microdilution method; type: functional
Staphylococcus aureus [9] = assay: Drug resistance, ratio of MIC for Staphylococcus aureus ATCC 29213 measured after 28 days to MIC for Staphylococcus aureus ATCC 29213 measured after 20 hrs; type: functional
Staphylococcus aureus [10] = assay: Antimicrobial activity against Staphylococcus aureus YZSA-15 harboring erythromycin resistance rRNA methylase C and vancomycin resistance locus assessed as inhibition of visible growth of bacteria incubated for 20 hrs by broth microdilution method; type: functional
Streptococcus suis [11] = assay: Antimicrobial activity against Streptococcus suis P1/7 assessed as inhibition of visible growth of bacteria incubated for 20 hrs by broth microdilution method; type: functional
Enterococcus faecium [12] = assay: Antimicrobial activity against Enterococcus faecium HFY01 assessed as inhibition of visible growth of bacteria incubated for 20 hrs by broth microdilution method; type: functional
[13] = Cytotoxicity against human Caco-2 cells assessed as cell viability at 1 time of MIC incubated for 48 hrs by CCK8 assay (reference value: 99.54 %); type: toxicity, cell-based; settings: read-out: Activity
[14] = Cytotoxicity against human Caco-2 cells assessed as cell viability at 4 times of MIC incubated for 48 hrs by CCK8 assay (reference value: 99.54 %); type: toxicity, cell-based; settings: read-out: Activity
Staphylococcus aureus [15] = assay: Bactericidal activity against Staphylococcus aureus ATCC 29213 assessed as bacterial killing at 8 times of MIC measured within 12 hrs by time-kill kinetics assay; type: functional, organism-based
[16] = Cytotoxicity against human HEp-2 cells assessed as cell viability at 16 times of MIC incubated for 48 hrs by CCK8 assay (reference value: 100 %); type: toxicity, cell-based; settings: read-out: Activity
Enterococcus faecalis [17] = assay: Antimicrobial activity against Enterococcus faecalis J2 harboring erythromycin-resistance rRNA methylase B and oxazolidinone phenicol transferable resistance gene assessed as inhibition of visible growth of bacteria incubated for 20 hrs by broth microdilution method; type: functional
Streptococcus agalactiae = assay: Antimicrobial activity against Streptococcus agalactiae DL03 harboring erythromycin-resistance rRNA methylase B assessed as inhibition of visible growth of bacteria incubated for 20 hrs by broth microdilution method; type: functional
Streptococcus pyogenes = assay: Antimicrobial activity against Streptococcus pyogenes DL02 harboring erythromycin-resistance rRNA methylase B assessed as inhibition of visible growth of bacteria incubated for 20 hrs by broth microdilution method; type: functional
Escherichia coli = assay: Antimicrobial activity against Escherichia coli ATCC 25922 assessed as inhibition of visible growth of bacteria incubated for 20 hrs by broth microdilution method; type: functional
[18] = Hemolytic activity in Kunming mouse erythrocytes assessed as hemolysis at 16 times of MIC measured after 1 hrs by absorbance based assay relative to control; type: toxicity, cell-based, Erythrocyte; settings: read-out: Activity
Acinetobacter baumannii [19] = assay: Antimicrobial activity against Acinetobacter baumannii 7979 assessed as inhibition of visible growth of bacteria incubated for 20 hrs by broth microdilution method; type: functional
Staphylococcus aureus [20] = assay: Bactericidal activity against Staphylococcus aureus ATCC 29213 assessed as decrease in bacterial number measured within 12 hrs by time-kill kinetics assay; type: functional, organism-based
Enterococcus faecium [21] = assay: Antimicrobial activity against Enterococcus faecium QF31 harboring erythromycin resistance rRNA methylase B and chloramphenicol-florfenicol resistance methylase assessed as inhibition of visible growth of bacteria incubated for 20 hrs by broth microdilution method; type: functional
Pseudomonas aeruginosa [22] = assay: Antimicrobial activity against Pseudomonas aeruginosa PA01 assessed as inhibition of visible growth of bacteria incubated for 20 hrs by broth microdilution method; type: functional
Staphylococcus aureus [23] = assay: Bactericidal activity against Staphylococcus aureus ATCC 29213 assessed as bacterial eradication at 4 times of MIC measured after 24 hrs by time-kill kinetics assay relative to control; type: functional
Enterococcus faecalis [24] = assay: microbe, parasite or virus in culture; type: functional; settings: SF23-1, time 20 hrs
Description: Antimicrobial activity against Enterococcus faecalis SF23-1 harboring erythromycin-resistance rRNA methylase B, tetracycline efflux protein L and chloramphenicol-florfenicol resistance methylase assessed as inhibition of visible growth of bacteria incubated for 20 hrs by broth microdilution method

[25] = Cytotoxicity against human HEp-2 cells assessed as cell viability at 1 time of MIC incubated for 48 hrs by CCK8 assay (reference value: 100 %); type: toxicity, cell-based; settings: read-out: Activity
[26] = Hemolytic activity in Kunming mouse erythrocytes assessed as hemolysis at 8 times of MIC measured after 1 hrs by absorbance based assay relative to control; type: toxicity, cell-based, Erythrocyte; settings: read-out: Activity
[27] = Hemolytic activity in Kunming mouse erythrocytes measured after 1 hrs by absorbance based assay; type: toxicity, cell-based, Erythrocyte
[28] = Hemolytic activity in Kunming mouse erythrocytes assessed as hemolysis at 2 times of MIC measured after 1 hrs by absorbance based assay relative to control; type: toxicity, cell-based, Erythrocyte; settings: read-out: Activity
[29] = Cytotoxicity against human Caco-2 cells assessed as cell viability at 16 times of MIC incubated for 48 hrs by CCK8 assay (reference value: 99.54 %); type: toxicity, cell-based; settings: read-out: Activity
Enterococcus faecalis [30] = assay: Antimicrobial activity against Enterococcus faecalis JH2-2 assessed as inhibition of visible growth of bacteria incubated for 20 hrs by broth microdilution method; type: functional
Enterococcus faecalis [31] = assay: Antimicrobial activity against Enterococcus faecalis ES01 harboring erythromycin-resistance rRNA methylase B and vanB-type vancomycin-resistance locus assessed as inhibition of visible growth of bacteria incubated for 20 hrs by broth microdilution method; type: functional
Acinetobacter baumannii [32] = assay: Antimicrobial activity against Acinetobacter baumannii AB11 assessed as inhibition of visible growth of bacteria incubated for 20 hrs by broth microdilution method; type: functional
Staphylococcus aureus [33] = assay: microbe, parasite or virus in culture; type: functional; settings: M147-2, time 20 hrs
Description: Antimicrobial activity against Staphylococcus aureus M147-2 harboring erythromycin resistance rRNA methylase B, tetracycline efflux protein L and chloramphenicol-florfenicol resistance methylase assessed as inhibition of visible growth of bacteria incubated for 20 hrs by broth microdilution method

Pseudomonas aeruginosa [34] = assay: Antimicrobial activity against Pseudomonas aeruginosa PA14 assessed as inhibition of visible growth of bacteria incubated for 20 hrs by broth microdilution method; type: functional
[35] = Cytotoxicity against human Caco-2 cells assessed as cell viability at 8 times of MIC incubated for 48 hrs by CCK8 assay (reference value: 99.54 %); type: toxicity, cell-based; settings: read-out: Activity
[36] = Hemolytic activity in Kunming mouse erythrocytes assessed as hemolysis at 4 times of MIC measured after 1 hrs by absorbance based assay relative to control; type: toxicity, cell-based, Erythrocyte; settings: read-out: Activity
Staphylococcus aureus [37] = assay: microbe, parasite or virus in culture; type: functional; settings: M92-1, time 20 hrs
Description: Antimicrobial activity against Staphylococcus aureus M92-1 harboring erythromycin resistance rRNA methylase B, tetracycline efflux protein L and oxazolidinone-phenicol transferable resistance gene assessed as inhibition of visible growth of bacteria incubated for 20 hrs by broth microdilution method

[38] = Cytotoxicity against human HEp-2 cells assessed as cell viability at 2 times of MIC incubated for 48 hrs by CCK8 assay (reference value: 100 %); type: toxicity, cell-based; settings: read-out: Activity
[39] = Cytotoxicity against human Caco-2 cells assessed as cell viability at 2 times of MIC incubated for 48 hrs by CCK8 assay (reference value: 99.54 %); type: toxicity, cell-based; settings: read-out: Activity
Signal peptidase I = Signal peptidase I (Escherichia coli K-12, UniProt P00803); assay: Binding affinity to recombinant 6His-tagged Escherichia coli LepB (77 to 324 residues) extracted from Escherichia coli BL21 (DE3) cells assessed as dissociation constant by MST analysis
Sequence of Signal peptidase I (P00803 whole entry, the tested form may be a part): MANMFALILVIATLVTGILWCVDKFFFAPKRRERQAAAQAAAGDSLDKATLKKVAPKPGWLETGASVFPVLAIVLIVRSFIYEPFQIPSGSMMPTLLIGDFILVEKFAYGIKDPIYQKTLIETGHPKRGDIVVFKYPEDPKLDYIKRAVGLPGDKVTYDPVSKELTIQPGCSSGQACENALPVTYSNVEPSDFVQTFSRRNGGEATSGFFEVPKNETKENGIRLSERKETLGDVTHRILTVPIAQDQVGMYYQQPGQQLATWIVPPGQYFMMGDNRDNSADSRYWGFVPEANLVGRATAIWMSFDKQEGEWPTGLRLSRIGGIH

For `COc1ccc2nc3c(c(C(=O)O)c2c1)CC(C)C/C3=C\c1cccc(-c2ccc(Cl)c(C(F)(F)F)c2)c1` (racemic), which viability at 48 h, 4 times of MIC [1] is on record?
Its viability at 48 h, 4 times of MIC is 66%.

What about the hemolysis at 1 h, 1 time of MIC [2] of the same molecule?
Its hemolysis at 1 h, 1 time of MIC is 0%.

What about the MIC (Enterococcus faecium [3]) of the same molecule?
Its MIC is 4 µg/mL (≈ 7.44 µM).

And the MIC (Klebsiella pneumoniae)?
The MIC was greater than 128 µg/mL.

What about the MIC (Staphylococcus aureus [4]) of the same molecule?
Its MIC is 2 µg/mL (≈ 3.72 µM).

What about the viability at 48 h, 8 times of MIC [5] of the same molecule?
The viability at 48 h, 8 times of MIC was 35.5%.

And the MIC (Staphylococcus aureus [6])?
Its MIC is 2 µg/mL (≈ 3.72 µM).

And the MIC (Streptococcus suis [7])?
The MIC was 16 µg/mL (≈ 29.7 µM).

And the MIC (Salmonella enteritidis)?
Its MIC is greater than 128 µg/mL.

And the MIC (Staphylococcus aureus [8])?
Its MIC is 2 µg/mL (≈ 3.72 µM).

And the Ratio (Staphylococcus aureus [9])?
Its Ratio is 4.

What about the MIC (Staphylococcus aureus [10]) of the same molecule?
The MIC was 2 µg/mL (≈ 3.72 µM).

What about the MIC (Streptococcus suis [11]) of the same molecule?
The MIC was 8 µg/mL (≈ 14.9 µM).

What about the MIC (Enterococcus faecium [12]) of the same molecule?
Its MIC is 4 µg/mL (≈ 7.44 µM).

And the viability at 48 h, 1 time of MIC [13]?
Its viability at 48 h, 1 time of MIC is 89.6%.

And the viability at 48 h, 4 times of MIC [14]?
Its viability at 48 h, 4 times of MIC is 51.9%.

What about the Activity (Staphylococcus aureus [15]) of the same molecule?
Its Activity is “Active”.

What about the viability at 48 h, 16 times of MIC [16] of the same molecule?
Its viability at 48 h, 16 times of MIC is 2.42%.

What about the MIC (Enterococcus faecalis [17]) of the same molecule?
Its MIC is 8 µg/mL (≈ 14.9 µM).

What about the MIC (Streptococcus agalactiae) of the same molecule?
The MIC was 32 µg/mL (≈ 59.5 µM).

And the MIC (Streptococcus pyogenes)?
The MIC was 16 µg/mL (≈ 29.7 µM).

What about the MIC (Escherichia coli) of the same molecule?
Its MIC is greater than 128 µg/mL.

And the hemolysis at 1 h, 16 times of MIC [18]?
The hemolysis at 1 h, 16 times of MIC was 63.5%.

And the MIC (Acinetobacter baumannii [19])?
Its MIC is greater than 128 µg/mL.

And the Activity (Staphylococcus aureus [20])?
The Activity was “Dose-dependent-effect”.

And the MIC (Enterococcus faecium [21])?
Its MIC is 4 µg/mL (≈ 7.44 µM).

And the MIC (Pseudomonas aeruginosa [22])?
Its MIC is greater than 128 µg/mL.

What about the Activity (Staphylococcus aureus [23]) of the same molecule?
The Activity was 100%.

What about the MIC (Enterococcus faecalis [24]) of the same molecule?
Its MIC is 4 µg/mL (≈ 7.44 µM).

And the viability at 48 h, 1 time of MIC [25]?
The viability at 48 h, 1 time of MIC was 89.8%.

What about the hemolysis at 1 h, 8 times of MIC [26] of the same molecule?
Its hemolysis at 1 h, 8 times of MIC is 22.3%.

And the HC50 at 1 h [27]?
The HC50 at 1 h was 25.9 µg/mL.

What about the hemolysis at 1 h, 2 times of MIC [28] of the same molecule?
Its hemolysis at 1 h, 2 times of MIC is 0%.

What about the viability at 48 h, 16 times of MIC [29] of the same molecule?
The viability at 48 h, 16 times of MIC was 5.84%.

What about the MIC (Enterococcus faecalis [30]) of the same molecule?
Its MIC is 4 µg/mL (≈ 7.44 µM).

And the MIC (Enterococcus faecalis [31])?
The MIC was 4 µg/mL (≈ 7.44 µM).

And the MIC (Acinetobacter baumannii [32])?
The MIC was greater than 128 µg/mL.

What about the MIC (Staphylococcus aureus [33]) of the same molecule?
The MIC was 2 µg/mL (≈ 3.72 µM).

And the MIC (Pseudomonas aeruginosa [34])?
Its MIC is greater than 128 µg/mL.

And the viability at 48 h, 8 times of MIC [35]?
Its viability at 48 h, 8 times of MIC is 36.6%.

And the hemolysis at 1 h, 4 times of MIC [36]?
Its hemolysis at 1 h, 4 times of MIC is 1.8%.

What about the MIC (Staphylococcus aureus [37]) of the same molecule?
The MIC was 2 µg/mL (≈ 3.72 µM).

What about the viability at 48 h, 2 times of MIC [38] of the same molecule?
Its viability at 48 h, 2 times of MIC is 84.8%.

And the viability at 48 h, 2 times of MIC [39]?
Its viability at 48 h, 2 times of MIC is 69.8%.

Which MIC (Staphylococcus aureus [6]) does the source give for `CC1C/C(=C\c2ccc(-c3cccc(Cl)c3)o2)c2nc3ccccc3c(C(=O)O)c2C1` (racemic) here?
The MIC was 8 µg/mL (≈ 18.6 µM).

And the MIC (Streptococcus suis [11])?
Its MIC is 32 µg/mL (≈ 74.4 µM).

What about the MIC (Enterococcus faecium [21]) of the same molecule?
The MIC was 16 µg/mL (≈ 37.2 µM).

What about the MIC (Enterococcus faecalis [24]) of the same molecule?
Its MIC is greater than 64 µg/mL.

What about the Kd (Signal peptidase I) of the same molecule?
Its Kd is 42.1 µM.
